Values quoted from earlier work, collected in patent publication US10849951B2, “Use of PHY906 as treatment for inflammatory bowel disease and/or irritable bowel syndrome” (priority 2007, dated 2020).

What was measured:
perineal Crohn's = details: human, in vivo
[1] = target: bacterial 13-glucuronidase (Escherichia coli, UniProt P05804)
patients = details: NCI Common Toxicity criteria

Sequence of bacterial 13-glucuronidase (P05804 whole entry): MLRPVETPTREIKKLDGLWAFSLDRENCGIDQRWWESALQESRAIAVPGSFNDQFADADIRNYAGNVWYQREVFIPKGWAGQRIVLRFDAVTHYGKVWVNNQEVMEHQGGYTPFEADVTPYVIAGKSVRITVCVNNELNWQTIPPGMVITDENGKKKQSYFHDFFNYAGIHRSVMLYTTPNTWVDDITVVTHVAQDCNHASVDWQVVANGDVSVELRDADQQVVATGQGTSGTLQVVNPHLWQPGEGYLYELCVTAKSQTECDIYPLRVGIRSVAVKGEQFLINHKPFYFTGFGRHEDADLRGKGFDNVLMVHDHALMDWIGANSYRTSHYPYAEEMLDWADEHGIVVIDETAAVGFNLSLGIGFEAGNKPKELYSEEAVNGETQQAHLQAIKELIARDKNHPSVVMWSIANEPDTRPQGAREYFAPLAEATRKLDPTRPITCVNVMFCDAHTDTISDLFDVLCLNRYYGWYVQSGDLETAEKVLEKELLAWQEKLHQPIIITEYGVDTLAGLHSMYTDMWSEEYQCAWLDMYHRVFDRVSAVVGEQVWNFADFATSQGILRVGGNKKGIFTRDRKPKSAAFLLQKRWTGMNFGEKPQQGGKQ

For `Cc1ncc([N+](=O)[O-])n1CCO` [Metronidazole, metronidazole], the “cases in which managing perineal Crohn's is effective” value (perineal Crohn's) is listed as “over 50%”.

For `O=c1cc(-c2ccccc2)oc2cc(O)c(O)c(O)c12` [Baicalein], the “inhibition of bacterial 13-glucuronidase” value [1] is listed as “feedback inhibitor”.

In the case of `CCc1c2c(nc3ccc(OC(=O)N4CCC(N5CCCCC5)CC4)cc13)-c1cc3c(c(=O)n1C2)COC(=O)[C@]3(O)CC` [CPT-11, irinotecan], the “patients with diarrhea classified grade 3 (serious) or grade 4 (life-threatening)” value (patients) is given as “about 40%”.
